This note sets out measurements from ChEMBL document CHEMBL5036307, “Antimalarial Quinacrine and Chloroquine Lose Their Activity by Decreasing Cationic Amphiphilic Structure with a Slight Decrease in pH” (J Med Chem, 2021).

Test [1] deals with Saccharomyces cerevisiae. Briefly: Antimicrobial activity against Saccharomyces cerevisiae BY4741 assessed as inhibition of microbial growth at pH 7 in presence of glucose measured after 48 hrs by visual analysis. Format: functional.
Test [2] has as its system Saccharomyces cerevisiae. Briefly: Antimicrobial activity against Saccharomyces cerevisiae BY4741 assessed as inhibition of microbial growth at pH 8 in presence of glucose measured after 48 hrs by visual analysis. Format: functional.
Test [3] has as its system Saccharomyces cerevisiae. Briefly: Ratio of antimicrobial activity against Saccharomyces cerevisiae BY4741 at pH 7 to antimicrobial activity against Saccharomyces cerevisiae BY4741 at pH 8. Format: functional.
Test [4] relates to Saccharomyces cerevisiae. Briefly: Antimicrobial activity against Saccharomyces cerevisiae BY4741 assessed as inhibition of microbial growth at 60 mM at pH 6 in presence of glucose measured after 48 hrs by visual analysis. Format: functional, organism-based.
The subject of test [5] is Saccharomyces cerevisiae. Nature of the test: Inhibition HXT2 in Saccharomyces cerevisiae using 2DG as substrate assessed as reduction in 2DG uptake by measuring Km at 75 uM at pH 7.5 by Michaelis-Menten analysis (Rvb= 0.76 +/- 0.03 mM).
The test system of test [6] is Saccharomyces cerevisiae. Briefly: Inhibition HXT2 in Saccharomyces cerevisiae using 2DG as substrate assessed as reduction in 2DG uptake by measuring Km at 125 uM at pH 7.5 by Michaelis-Menten analysis (Rvb= 0.76 +/- 0.03 mM).
Test [7] concerns Saccharomyces cerevisiae. Briefly: Inhibition HXT2 in Saccharomyces cerevisiae using 2DG as substrate assessed as reduction in 2DG uptake by measuring decrease in Vmax at 125 uM at pH 7.5 by Michaelis-Menten analysis (Rvb= 211 +/- 9 nmol/min).
Test [8] can be described thus: Inhibition HXT2 in Saccharomyces cerevisiae using 2DG as substrate assessed as inhibition of 2DG uptake at pH 6 preincubated for 10 min followed by substrate addition and measured after 10 min by glucose uptake-Glo assay.
For test [9], the system named is Saccharomyces cerevisiae. Briefly: Ratio of antimicrobial activity against Saccharomyces cerevisiae BY4741 at pH 6 to antimicrobial activity against Saccharomyces cerevisiae BY4741 at pH 8. Format: functional.
The test system of test [10] is Saccharomyces cerevisiae. Briefly: Antimicrobial activity against Saccharomyces cerevisiae BY4741 assessed as inhibition of microbial growth at pH 6 in presence of glucose measured after 48 hrs by visual analysis. Format: functional.
Test [11] has as its system Saccharomyces cerevisiae. Nature of the test: Inhibition HXT2 in Saccharomyces cerevisiae using 2DG as substrate assessed as reduction in 2DG uptake by measuring decrease in Vmax at 75 uM at pH 7.5 by Michaelis-Menten analysis (Rvb= 211 +/- 9 nmol/min).
A short description of test [12]: Inhibition HXT2 in Saccharomyces cerevisiae using 2DG as substrate assessed as reduction in 2DG uptake at pH 7.5 preincubated for 10 min followed by substrate addition and measured after 10 min by glucose uptake-Glo assay.
The test system of test [13] is Saccharomyces cerevisiae. Briefly: Antimicrobial activity against Saccharomyces cerevisiae BY4741 assessed as inhibition of microbial growth at 50 mM at pH 5 in presence of glucose measured after 48 hrs by visual analysis. Format: functional, organism-based.
Test [14] concerns Saccharomyces cerevisiae. Nature of the test: Inhibition HXT2 in Saccharomyces cerevisiae using 2DG as substrate assessed as reduction in 2DG uptake by measuring decrease in Vmax at 0.6 mM at pH 7.5 by Michaelis-Menten analysis (Rvb= 208 +/- 7 nmol/min).
In test [15] the test system is Saccharomyces cerevisiae. Briefly: Inhibition HXT2 in Saccharomyces cerevisiae using 2DG as substrate assessed as reduction in 2DG uptake by measuring decrease in Vmax at 0.2 mM at pH 7.5 by Michaelis-Menten analysis (Rvb= 208 +/- 7 nmol/min).
Test [16] can be described thus: Inhibition of actin polarization in Saccharomyces cerevisiae BY4741 at pH 7.5 incubated for 30 mins in presence of 2% glucose by rhodamine phalloidin staining based confocal microscopic analysis.
The subject of test [17] is Cell membrane. Nature of the test: Induction of membrane disruption in Saccharomyces cerevisiae BY4741 assessed as cell lysis by measuring increase in extracellular ATP level at pH 7.5 in presence of 2% glucose incubated for 30 mins.
The subject of test [18] is Saccharomyces cerevisiae. Briefly: Inhibition HXT2 in Saccharomyces cerevisiae using 2DG as substrate assessed as reduction in 2DG uptake by measuring Km at 0.6 mM at pH 7.5 by Michaelis-Menten analysis (Rvb= 0.76 +/- 0.08 mM).
The test system of test [19] is Cell membrane. Briefly: Induction of membrane disruption in Saccharomyces cerevisiae BY4741 at 50 mM incubated for 2 hrs by FM4-64 staining based analysis. Format: subcellular.
For test [20], the system named is Saccharomyces cerevisiae. Nature of the test: Antimicrobial activity against saccharomyces cerevisiae BY4741 assessed as inhibition of translation initiation by measuring polysme/monosome ratio at 1.5 mM at pH 7.5 incubated for 30 mins in presence of 2% glucose by polysome analysis (Rvb= 1.74). The settings on record: 0.5 h. Format: functional.
The test system of test [21] is Saccharomyces cerevisiae. Briefly: Inhibition of endocytosis in Saccharomyces cerevisiae BY4741 from plasma to vacuoles assessed as formation of discrete granules at 25 mM incubated for 2 hrs by FM4-64 staining based analysis. Format: functional, organism-based.
Test [22] has as its system Saccharomyces cerevisiae. Briefly: Antimicrobial activity against saccharomyces cerevisiae BY4741 assessed as inhibition of translation initiation by measuring polysme/monosome ratio at 1.5 mM at pH 7.5 incubated for 30 mins in presence of 8% glucose by polysome analysis (Rvb= 1.94). Format: functional. The settings on record: 0.5 h.
In test [23] the test system is Saccharomyces cerevisiae. Briefly: Inhibition HXT2 in Saccharomyces cerevisiae using 2DG as substrate assessed as reduction in 2DG uptake by measuring Km at 0.2 mM at pH 7.5 by Michaelis-Menten analysis (Rvb=0.76 +/- 0.08 mM).
The nature of test [24]: Inhibition of actin polarization in Saccharomyces cerevisiae BY4741 at pH 7.5 incubated for 30 mins in presence of 8% glucose by rhodamine phalloidin staining based confocal microscopic analysis.
Test [25] has as its system Cell membrane. Nature of the test: Induction of membrane disruption in Saccharomyces cerevisiae BY4741 assessed as cell lysis by measuring increase in extracellular ATP level at pH 7.5 in presence of 8% glucose incubated for 30 mins.
For test [26], the system named is Saccharomyces cerevisiae BY4741. Nature of the test: Inhibition of actin polarization in Saccharomyces cerevisiae BY4741 at pH 6 incubated for 30 mins in presence of 2% glucose by rhodamine phalloidin staining based confocal microscopic analysis.

Calls of active or inactive are those of the source. The rule behind the calls is not given here.

The MIC is the lowest concentration found to suppress growth. In general, Km refers to the concentration of substrate that gives half-maximal velocity. The Vmax is the top rate of the reaction or transport when substrate is in excess. For orientation: IC50 means the concentration that inhibits the measured activity by half.

With `CCN(CC)CCCC(C)Nc1ccnc2cc(Cl)ccc12` (stereo unspecified) [CHLOROQUINE], the results for the MIC in the test on Saccharomyces cerevisiae [1] and in the test on Saccharomyces cerevisiae [2] were 15000 µM and 520 µM, respectively. In addition, the Ratio in the test with Saccharomyces cerevisiae [3] stood at 30. Besides, the result in the test with Saccharomyces cerevisiae [4] was inactive.

Consider `CN(C)CCCN1c2ccccc2Sc2ccc(Cl)cc21` [CHLORPROMAZINE], for which the MIC came to 31 µM in the test with Saccharomyces cerevisiae [1], 15 µM with Saccharomyces cerevisiae [2] and 250 µM in the test on Saccharomyces cerevisiae [10]. The Km in the test on Saccharomyces cerevisiae [5] was 630 µM; with Saccharomyces cerevisiae [6] it was 710 µM. Further, the Vmax was 63 nmol/min with Saccharomyces cerevisiae [7] and 126 nmol/min in the test with Saccharomyces cerevisiae [11]. The Ratio with Saccharomyces cerevisiae [3] is given as 2; in the test with Saccharomyces cerevisiae [9] it was 16. Moreover, the values for the 50% inhibitory concentration (IC50) in [8] and in test [12] were 259 µM and 115 µM, respectively.

Turning to `CCN(CC)CCCC(C)Nc1c2ccc(Cl)cc2nc2ccc(OC)cc12` (stereo unspecified) [QUINACRINE], the result with Saccharomyces cerevisiae [13] was inactive. The values for the MIC with Saccharomyces cerevisiae [1], in the test with Saccharomyces cerevisiae [2] and in the test with Saccharomyces cerevisiae [10] were 2.5 µM, 83 µM and 50000 µM, respectively. In addition, the Vmax in the test with Saccharomyces cerevisiae [14] stood at 113 nmol/min; in the test with Saccharomyces cerevisiae [15] it was 158 nmol/min. The concentration for half-maximal inhibition (IC50) came out at 1000 µM in [16], 3490 µM in test [8], 1600 µM in test [24] and 370 µM in test [12]. Moreover, the Activity was 21.6 mM with Cell membrane [17] and 37 mM in the test on Cell membrane [25]. Also, the figures for the Km in the test on Saccharomyces cerevisiae [18] and in the test on Saccharomyces cerevisiae [23] were 750 µM and 770 µM, respectively. Moreover, the result with Cell membrane [19] was Active. The Ratio was found to be 1.53 with Saccharomyces cerevisiae [20], 1.69 with Saccharomyces cerevisiae [22], 30 in the test on Saccharomyces cerevisiae [3] and 600 with Saccharomyces cerevisiae [9]. In the test on Saccharomyces cerevisiae [21], the inhibition result was “Active”. In test [26], the inhibition entry is “inactive”.
